Data reported in PMC10112521, “High-throughput AR dimerization assay identifies androgen disrupting chemicals and metabolites” (Frontiers in Toxicology, 2023).
Values joined by “and” are separate entries in the source; they are usually repeats but may differ in a detail not shown here. Identical values can stand only once. Like-named read-outs stand apart in the source and are kept apart here.

How the values were obtained:
[1] = tested on: human AR (LBD and AF2 domains) and the RID of human SRC2; parameters: method as in U.S. EPA, 2002b; conditions: activity call, agonist mode, 2 h; invitroDBv3.4 ref U.S. EPA, 2002b; cited from earlier work
[2] = tested on: human AR (LBD and AF2 domains) and the RID of human SRC2; parameters: method as in U.S. EPA, 2002b; conditions: cited from earlier work
[3] = tested on: AR2 cells (HepG2-AR2); assay: Alamar Blue (resazurin) post hoc cell viability / cytotoxicity assay in AR2 cells; conditions: spid Viability, sheet antagonist_fits; for hill_tp (Hill model top): 0 where win_model is Constant
Procedure: (§1) For antagonist mode and cytotoxicity data, well-level normalized response (resp) was calculated as: resp=100 * RLU−bval/pval−bval where pval is the median RLU value of the MEC positive control wells (minimum four wells).

[4] = target: T1, human AR (Homo sapiens, UniProt P10275); assay: cell-based; parameters: species or system AR2 cells (HepG2-AR2); NanoLuc complementation AR homodimerization, antagonist mode, loss of agonist-induced luminescence, AC50 by Hill fit; conditions: hill_ga, antagonist mode, 10 nM agonist stimulus, 18 h, no CYP expressed
T1 sequence (P10275 1-920) 1: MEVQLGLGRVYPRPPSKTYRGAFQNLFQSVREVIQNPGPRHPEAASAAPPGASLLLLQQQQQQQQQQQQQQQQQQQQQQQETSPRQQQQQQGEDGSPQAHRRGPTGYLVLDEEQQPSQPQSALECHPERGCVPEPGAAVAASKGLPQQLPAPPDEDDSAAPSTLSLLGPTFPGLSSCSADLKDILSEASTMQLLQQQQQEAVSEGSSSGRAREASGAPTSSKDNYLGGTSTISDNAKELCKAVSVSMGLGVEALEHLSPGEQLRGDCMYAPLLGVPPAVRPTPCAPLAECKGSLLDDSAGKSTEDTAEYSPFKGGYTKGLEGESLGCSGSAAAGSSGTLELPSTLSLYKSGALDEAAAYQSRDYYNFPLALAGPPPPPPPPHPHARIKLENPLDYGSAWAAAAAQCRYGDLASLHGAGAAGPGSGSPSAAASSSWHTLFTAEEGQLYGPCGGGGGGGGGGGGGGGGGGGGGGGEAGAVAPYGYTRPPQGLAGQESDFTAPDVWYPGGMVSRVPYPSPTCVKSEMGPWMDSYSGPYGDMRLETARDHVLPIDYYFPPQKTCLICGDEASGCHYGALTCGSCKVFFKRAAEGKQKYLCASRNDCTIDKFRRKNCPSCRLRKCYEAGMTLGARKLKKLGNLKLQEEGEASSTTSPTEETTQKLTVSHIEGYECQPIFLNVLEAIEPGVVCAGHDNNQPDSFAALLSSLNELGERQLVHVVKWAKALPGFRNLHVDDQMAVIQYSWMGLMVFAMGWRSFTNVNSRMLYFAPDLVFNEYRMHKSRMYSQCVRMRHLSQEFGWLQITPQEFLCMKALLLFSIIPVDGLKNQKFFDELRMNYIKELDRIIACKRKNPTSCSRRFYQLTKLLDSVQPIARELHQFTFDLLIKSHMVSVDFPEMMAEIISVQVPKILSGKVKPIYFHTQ
T1 sequence (P10275 1-920) 2: T1 sequence (P10275 1-920) 1

[5] = tested on: full-length human AR and the receptor interacting domain (RID) of SRC1; parameters: method as in U.S. EPA, 2002b; conditions: cited from earlier work
[6] = target: T1, human AR; assay: AR2 assay, antagonist mode: disruption of R1881 (10 nM)-induced AR homodimerization in HepG2-AR2 cells; assay type: cell-based
[7] = tested on: AR; parameters: method as in Kleinstreuer et al., 2017; conditions: 2017, cited from earlier work; for Agonist reference: AR agonist reference class ref Kleinstreuer et al.; for Antagonist reference: AR antagonist reference class ref Kleinstreuer et al.
[8] = target: T1, human AR; assay: AR2 assay, agonist mode: ligand-dependent AR homodimerization (NanoBiT luciferase complementation) in stable HepG2-AR2 cells; assay type: cell-based; parameters: Emax: dose or concentration left out as unconfirmed;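 as to hill tp: Log2 fold change of luminescence over DMSO vehicle wells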;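 as to max med: Log2 fold change of luminescence over DMSO vehicle wells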
[9] = target: T1, human AR; assay: AR2 assay, antagonist mode, retrofitted with human CYP metabolism by mRNA transfection (biogroups no RNA, Bgal, ten CYPs)
[10] = target: T1, human AR; assay: cell-based; parameters: species or system AR2 cells (HepG2-AR2); NanoLuc complementation AR homodimerization, agonist mode, luminescence gain, AC50 by Hill fit; conditions: hill_ga
[11] = tested on: AR2 cells (HepG2-AR2)
Procedure: as §1

[12] = target: T1, human AR
[13] = target: T1, human AR; assay: cell-based
[14] = spid AR_antagonist, sheet antagonist_fits
[15] = spid AR_antagonist, sheet antagonist_fits, 0 where win_model is Constant
[16] = sheet agonist_fits, Hill model top (efficacy), 0 given where win_model is Constant
[17] = sheet agonist_fits, maximum median response
[18] = sheet agonist_fits, winning concentration-response model (Constant, Hill, Gain-Loss)

Compound: CC1(C)[C@H](C(=O)O[C@H](C#N)c2cccc(Oc3ccccc3)c2)[C@@H]1C=C(Br)Br [Deltamethrin]
- UPitt agonist [1]: 0
- UPitt antagonist ([2]; activity call, antagonist mode, 2 h, invitroDBv3.4 ref U.S. EPA, 2002b): 0
- max_med (maximum median response) [3]: 34.81
- hill_tp (Hill model top) [3]: 34.1073
- AC50 ([4]; spid=Bgal): 12300 nM
- AC50 ([4]; spid=No_RNA): 12800 nM
- OT 8 hr ([5]; activity call, 8 h, single protocol detects agonists and antagonists, invitroDBv3.4 ref U.S. EPA, 2002b): 0
- OT 16 hr ([5]; activity call, 16 h, single protocol detects agonists and antagonists, invitroDBv3.4 ref U.S. EPA, 2002b): 0
- AR2 antagonist ([6]; activity call, antagonist mode, 18 h): 0
- max_med (maximum median response) [6, 14]: 65.39
- win_model (winning concentration-response model) [6, 14]: Hill
- hill_gw (Hill model slope) [6, 15]: 2.614
- hill_tp (Hill model top) [6, 15]: 65.8008
- Agonist reference [7]: Inactive
- Antagonist reference [7]: Inactive
- Agonist reference ([7]; Supplementary Table S1): Inactive
- Antagonist reference ([7]; Supplementary Table S1): Inactive
- AR2 agonist ([8]; activity call, agonist mode, 18 h): 0
- hill_tp [8, 16]: 0
- max_med [8, 17]: 0.0322
- win_model [8, 18]: Constant

Compound: C[C@]12CC[C@H]3C(=CCc4cc(O)ccc43)[C@@H]1CCC2=O [Equilin]
- effect of CYP metabolism on AR antagonist activity ([9]; CYP2C19 biogroup): reduced the potency
- AC50 ([4]; spid=Bgal): 487 nM
- AC50 ([4]; spid=No_RNA): 861 nM
- AC50 ([10]; spid=Bgal, agonist mode, 18 h, no CYP expressed): 2140 nM
- AC50 ([10]; spid=No_RNA, agonist mode, 18 h, no CYP expressed): 2290 nM
- hill_tp (Hill model top) [11]: 7.023
- max_med (maximum median response) ([11]; spid Viability, sheet antagonist_fits): 12.8285
- hill_tp (Hill model top) [6]: 92.4898
- max_med (maximum median response) [6]: 92.3262
- win_model (winning concentration-response model) [6, 14]: Hill
- hill_gw (Hill model slope) [6, 15]: 1.131
- hill_gw ([8]; sheet agonist_fits, Hill model gain slope (Hill coefficient), 0 given where win_model is Constant): 1.401
- hill_tp [8, 16]: 3.175
- max_med [8, 17]: 3.181
- win_model [8, 18]: Hill

Compound: C[C@]1(O)CC[C@H]2[C@@H]3CCC4=CC(=O)CCC4=C3C=C[C@@]21C [R1881, (17b)-17-hydroxy-17-methyl-estra-4,9,11-trien-3-one]
- effect of CYP metabolism on the AR2 assay controls [12]: unimpacted by CYP metabolism
- hill_gw [8]: 1.162
- hill_tp [8]: 6.231
- max_med [8]: 6.236
- win_model [8]: Hill
- Emax ([8]; read-out: maximal response): > 95%

Compound: CCC(=O)O[C@H]1CC[C@H]2[C@@H]3CCC4=CC(=O)CC[C@]4(C)[C@H]3CC[C@]12C [Testosterone propionate]
- AC50 [13]: 169 nM and 529 nM and 333 nM and 440 nM and 380 nM
- UPitt agonist [1]: 0
- UPitt antagonist [2]: 0
- change of AC50 value ([9]; median across all biogroups versus CYP2C8, CYP2C9, CYP2C19, CYP3A4): more than 2 fold
- max_med (maximum median response) [3]: 32.5936
- hill_tp (Hill model top) [3]: 43.3025
- AC50 [10]: 234 nM
- OT 8 hr [5]: 1
- OT 16 hr [5]: 1
- AR2 antagonist [6]: 1
- hill_gw (Hill model slope) [6]: 1.115
- hill_tp (Hill model top) [6]: 100.853
- max_med (maximum median response) [6]: 102.627
- win_model (winning concentration-response model) [6]: Hill
- Agonist reference [7]: Strong
- Antagonist reference [7]: Inactive
- Agonist reference ([7]; Supplementary Table S1): Strong
- AR2 agonist [8]: 1
- hill_gw [8]: 0.9765
- hill_tp [8]: 2.087
- max_med [8]: 2.0998
- win_model [8]: Gain-Loss
